One test has as its system E. coli. The test is described as follows: Colony-forming assay (CFU), liquid phase. Format: cell-based. The settings on record: 3 (unit uncertain), 10 mM phosphate, 1% TSB, pH 7.4. The arrangement: unit of the concentration uncertain. As for the experimental part: (§1) FIGS. 3A–C show Growth inhibition of MRSA, E. coli, and P. aeruginosa by cathelin-like protein. (a) Inhibition zone ssay on tryptone/agarose plates with MRSA. Clear circles show lack of bacterial growth. Lanes 1, 3, 5, bottom row: cathelin-like protein at […], 16 μM, respectively. Lane 2, top row:[…] of His-tagged cathelin-like protein before cleavage. Lane 4, top: enterokinase enzyme alone. All assays were performed in duplicate and repeated three times. (b), (c) CFU assay: growth inhibition of (b) MRSA and (c) E. coli, cultured in 10 mM phosphate and 1% TSB (pH 7.4) and then supplemented with different concentrations of human cathelin-like protein.
(§2) The colony-forming assay (CFU) was performed. Bacterial cultures (E. coli or MRSA) were collected at the logarithmic phase of growth in TSB, washed twice with phosphate-buffered saline, pH 7.4, and diluted to 104 CFU per ml in 10 mM phosphate buffer, pH 7.4, Na2HPO4/NaH2PO4-1% TSB (g per 1). Forty-five microliters of bacterial suspension were mixed with […] of H2O (control) or with […] of different concentrations of cathelin-like proteins, and the mixture was incubated at 37° C. Every 30 min, a […] aliquot of the reaction mixture was plated directly onto a TSB agar plate and then incubated at 37° C. overnight for enumeration of CFU. Data are reported as growth index=final CFU/CFU in initial inoculum. […]

Test [1] has as its system Pseudomonas aeruginosa (ATCC 8427). Kind of test: Radial diffusion (inhibition zone) assay. Format: cell-based. The settings on record: P. aeruginosa. On the procedure: (§3) Antimicrobial assays. E. coli (ATCC 25922), Pseudomonas aeruginosa (ATCC 8427), Salmonella typhimurium (ATCC 13311), Proteus vulgaris (ATCC 8427), Staphylococcus epidermidis (ATCC 12228), and MRSA (ATCC 33591) isolates were maintained on trypticase soy broth (TSB) agar plates. Individual colonies were selected and cultured overnight in TSB, subcultured once at 1:50 in fresh TSB, and then grown to stationary phase for use in all experiments. The radial diffusion assay was performed in 0.5% agarose and 0.75% tryptone brought to ebullition and cooled to 43° C., and then mixed with […] of bacterial suspension and poured into a 10 cm Petri dish. A series of small wells (diameter, 3 mm) were punched in the plate after the agarose solidified. Two microliters of test samples were applied in each well. Plates were incubated at 37° C. overnight to allow visible growth of bacteria. Antibacterial activity was indicated by the clear zone (no bacterial growth) around the well.
(§4) Antimicrobial activity of recombinant cathelin-like protein. Recombinant cathelicidins were tested for antimicrobial activity using a standard radial diffusion assay. Different concentrations of the cathelin-like protein were loaded into wells on assay plates containing Gram-positive MRSA, S. epidermidis, and strains of the Gram-negative bacterial species E. coli, S. enteritidis, P. vulgaris, and P. aeruginosa. […] Similarly, cathelin-like protein inhibited growth of S. epidermidis ([…]) but not S. enteritidis or P. vulgaris.

In another test the test system is S. enteritidis. Kind of test: Radial diffusion (inhibition zone) assay. Format: cell-based. As for the experimental part: as §3, §4
Another test has as its system E. coli (ATCC 25922). The test is described as follows: Radial diffusion (inhibition zone) assay. Format: cell-based. As for the experimental part: as §3, §4
Test [2] relates to Staphylococcus epidermidis (ATCC 12228). The test is described as follows: Radial diffusion (inhibition zone) assay. Format: cell-based. The settings on record: S. epidermidis (Gram-positive). On the procedure: as §3, §4
The test system of another test is MRSA. Kind of test: Colony-forming assay (CFU), liquid phase. Format: cell-based, Staphylococcus aureus. The note with it: 10 mM phosphate, 1% TSB, pH 7.4. On the procedure: as §1, §2
Another test concerns MRSA (ATCC 33591). Kind of test: Radial diffusion (inhibition zone) assay. Format: cell-based, Staphylococcus aureus. The settings on record: MRSA (Gram-positive). As for the experimental part: as §1
as §3, with “A series of small wells (diameter, 3 mm) were punched in the plate after the agarose solidified. Two microliters of test samples were applied in each well. Plates were incubated at 37° C. overnight to allow visible growth of bacteria. Antibacterial activity was indicated by the clear zone (no bacterial growth) around the well.” left out

Experimental findings from patent publication US7173007B1, “Therapy for microbial infections” (The Regents of the University of California, priority 2003, dated 2007) are described below.

Turning to “LL-37: C-terminal 37 amino acid mature antimicrobial peptide of human hCAP18 (LLGDFFRKSKEKIGKEFKRIVQRIKDFLRNLVPRTES) [reference compound]”, the “effect on growth (CFU)” value is given as “bactericidal” in the test with E. coli and “no effect” in the test with MRSA. The “growth inhibition” value in test [1] was “highly active”; in the test with S. enteritidis, “highly active”; with E. coli (ATCC 25922) it was “highly active”; in test [2], “inactive”; in the test with MRSA (ATCC 33591), “inactive”.

Take CRAMP [reference compound]: the “growth inhibition” value in test [1] is “highly active”; with S. enteritidis it was “highly active”; in the test with E. coli (ATCC 25922) it was “highly active”; in test [2], “inactive”; with MRSA (ATCC 33591), “inactive”.
